The structures appear in SMILES notation. Several values for one entry are separate records, joined by “and”; a condition that tells them apart may be missing. Equal entries are not always repeated. Entries after “also recorded” stand apart in the source; their conditions may differ.

In data set [1] the test system is panel of AML and ALL cell lines. Put plainly: CTG viability in a panel of AML and ALL cell lines (Fig. 3a). It is filed as cell-based, human. The following applies: for IC50: replicate values. The procedure: The primary screen was performed in 384-well format using the CellTiter Glo (CTG) luminescent cell viability assay (Promega) as previously described. […] After overnight incubation at 37 °C in a humidified 5% CO2 incubator, cells were treated with compounds in dose–response format using a Pintool on a Biomek FX^P Laboratory Automation Workstation (Beckman Coulter). […] Luminescence signal was measured using an EnVision plate reader (PerkinElmer).
HD-MB03 cell line was obtained from Drs. Milde, Witt and Deubzer[52]. HD-MB03 and MB004 cells were grown in a neurobasal medium supplemented with glutamine, streptomycin, penicillin, B27, EGF, bFGF, and heparin as previously described. MB002 and MB004 cells were obtained from Dr Yoon-Jae Cho[54]. MB002 cells were cultured in 80% neurobasal medium supplemented with glutamine, streptomycin, penicillin, B27, and 20% conditioned media from previous passages; EGF, bFGF, and heparin were also added to the medium. MHH-CALL4, NALM-16, MHH-CALL-2 cells were obtained from the German Collection of Microorganisms and Cell Cultures GmbH (DSMZ, Germany). PER-117 cells were obtained from Telethon Kids Institute (Perth, Australia). The cells were cultured in RPMI1640 medium supplemented with 10% FBS (Hyclone), Penicillin/Streptomycin (100 units/mL), and Glutamine (100 µM) except for MHH-CALL-2 cells where 20% FBS were used. […] OCI-AML3 cells were purchased from DSMZ (ACC 690) and cultured in Alpha-MEM media (Invitrogen) supplemented with 20% FBS and 100 U/ml penicillin–streptomycin. […] Cell identity was confirmed by STR profiling using PowerPlex® Fusion System (Promega).

Data set [2] can be described thus: Liver microsomes stability assay, human. The class given is in vitro ADME. On the procedure: page 31: using a REMS Autosampler (World Precision Instruments, Sarasota, […]1 cells were grown for 5 days to reach a consistent confluency level monitored by epithelial voltohmmeter to confirm the intactness of the confluent polarized monolayer. For transport experiments, each cultured monolayer on the 96-well plate was washed twice with a transport buffer (HBSS/25 mM […] The cell-based permeability assay was initiated by the addition of each compound solution (10 μmol/L) into inserts (apical side, A) or receivers (basolateral side, B). After incubated […] (if basal to apical permeability), and concentrations were assessed by UPLC/MS (Waters; Milford, MA). All compounds were tested in triplicates. The A→B (or B→A) apparent permeability coefficients (Papp) of each compound were calculated using the equation (3): […], where dQ/dt equals the flux of a drug across the monolayer, the parameters of A equals the surface area of total insert well, and C0 is the initial concentration of substrate in the donor compartment. The efflux ratio was determined by dividing the Papp in the B-A direction by the Papp in the A-B direction. […] NADPH regenerating agent solutions A and B (Corning GentestTM, Cat. No: 451220) were purchased from Discovery Labware (Woburn, MA). Mouse liver microsomes (CD-1, pooled, GibcoTM, Cat. No: MSMCPL) were obtained from Thermo Fisher Scientific (Fredrick, MD). Pooled human liver microsomes (mixed gender, Cat. No: E0630) were purchased from XenoTech (Lenexa, KS). Stock solutions of test compounds were prepared at 10 mM in DMSO. Sample preparation for microsomal stability was modified from Di's publications3,4. […] and 4 hours) by Labcyte Echo 650 acoustic dispenser (Beckman Coulter Life Sciences, Indianapolis, IN). All compounds were tested in triplicate per time point. […] Plasma stability assay5: The degradation of human or mouse plasma was assessed by monitoring the gradual reduction of the parent compound over specified time intervals (0, 3, 24, and 48 hours). […]

Setting [3] is: Homo sapiens, MOLM-13, MOLM-13 cells.

What is called IC50 is the concentration at which inhibition is half-maximal. Low values mean greater potency, high ones weaker potency. Turning to `Cc1cccc(C(=O)Nc2ccc3c(c2)CN(C2CCC(=O)NC2=O)C3=O)c1` (centres unmarked) [SJ0040], the IC50 was 2 nM (2×) and 4.9 nM in data set [1] (HNT-34 cells); 27 nM in data set [1] (Homo sapiens, MHHCALL-2 cells); 125 nM in data set [1] (setting [3]); 16 nM and 11 nM and 30.2 nM in data set [1] (KASUMI-3 cells); 67 nM and 73 nM and 17 nM in data set [1] (MHHCALL-4 cells); 136 nM and 96.2 nM in data set [1] (MOLM-13 cells). For the same compound, the IC50 in data set [1] (NALM16 cells) is 130 nM and 16 nM and 25 nM.

As to `O=C1CCC(N2Cc3cc(Nc4noc5ccccc45)ccc3C2=O)C(=O)N1` (centres unmarked) [SJ3149], in data set [1] (CTG), the “IC50 values / cytotoxicity in panel of AML and ALL cell lines” value is on record as “single digit nanomolar range; also recorded: low nanomolar to sub-nanomolar range”. For the same compound, the IC50 worked out at 1.5 nM in data set [1] (HNT-34 cells); 1 nM in data set [1] (Homo sapiens, HNT-34, HNT-34 cells); 118 nM in data set [1] (Homo sapiens, Kasumi-3, KASUMI-3 cells); 3 nM in data set [1] (Homo sapiens, MHHCALL4, MHHCALL-4 cells); 2 nM in data set [1] (Homo sapiens, MHHCALL-2 cells); 8 nM in data set [1] (setting [3]). Further, the IC50 in data set [1] (KASUMI-3 cells) is 72 nM and 71.7 nM; in data set [1] (MHHCALL-4 cells) it was 4 nM; in data set [1] (MOLM-13 cells) it was 11 nM and 7.1 nM. Besides, in data set [2] (both sexes, human, liver microsomes, pH 7.4, read-out: Microsome stability t1/2), the half-life at 10 µM was over 10 h.

Regarding `O=C1CCC(N2Cc3cc(Nc4noc5ccccc45)ccc3C2=O)C(=O)N1` (centres unmarked) [SJ001043149-1], in data set [2], the Ke is reported as -0.00692 and the “t(1/2)” value is recorded as -100.22.

(Values after paper PMC10791743, “Selective CK1α degraders exert antiproliferative activity against a broad range of human cancer cell lines” (Nature Communications, 2024).)
